Experimental data as given in patent US7662607B2, “Chalaropsis lysozyme protein and its method of use in anti-bacterial applications” (New Century Pharmaceuticals, Inc., priority 2003, dated 2010).

B1: Lysozyme Ch: Lysozyme from fungus Chalaropsis species, N,O-diacetylmuramidase, corrected sequence SEQ ID NO:1 (protein, listed as Chalaropsis sp.)
chain: TVQGFDISSYQPSVNFAGAYSAGARFVIIKATEGTSYTNPSFSSQYTGATNAGFIRGGYHFAHPGETTGAAQADYFIAHGGGWSGDGITLPGMLDLESEGSNPACWGLSAASMVAWIKAFSDRYHAVTGRYPMLYTNPSWWSSCTGNSNAFVNTNPLVLARYASAPGTIPGGWPYQTIWQNSDAYAYGGDSNIFNGSADNLKKLATG

Key:
Staphylococcus cell wall = experiment: Lysozyme Ch activity, turbidimetric rate determination with Staphylococcus cell wall (absorbance at 600 nm); format: biochemical; conditions: 50 mM Sodium acetate Buffer, pH 4.8, 25° C.
Procedure: In one example, the Chalaropsis Lysozyme PEGylation was carried out using the steps as follows: (1) 15 mg of Chalaropsis Lysozyme and 1.05 g of Methoxypolyethylene glycol succinimidyl succinate (MPSS) was added into 0.1 M Sodium phosphate buffer to make final volume of 10 ml. (2) The mixture was allowed to shake on a rotator for 120 hours. The mixture was run on a SDS-PAGE to verify PEGylation (FIG. 1). (3) The mixture was concentrated with a YM-10 centriprep to a final volume of 1 ml. (4) The protein was loaded onto a XK16 column packed with Sephacryl S-300 resin. Fractions were collected every 2 min, i.e. 2 mls. (5) The following fractions are run on two gels (FIG. 2 and FIG. 3): • Gel1: MW, 28, 30, 35, 40, 45, 50, 55, 60, 65 • Gel2: MW, 70, 75, 80, 83, 85, 90, 95, 99, 105. (6) Based on the gel, it was decided that fractions around tube 55 was fully PEGylated, and thus fractions 53 to 57 were pooled and concentrated. (7) Activity was tested at 1 mg/ml for both native and PEGylated protein. […] PEGylation of Lysozyme Ch
Lysozyme Ch activity was measured with Staphylococcus cell wall in 50 mM Sodium acetate Buffer, pH 4.8 at 25° C. Absorbance at 600 nm is monitored for the turbidimetric rate determination on an Ultrospec 2000 spectrophotometer (Ref. 2).

[1] = system: Micrococcus lysodeikticus cells; experiment: HEW Lysozyme activity, turbidimetric rate determination with Micrococcus lysodeikticus cells (absorbance at 450 nm); format: biochemical; conditions: 50 mM Potassium Phosphate Buffer, pH 6.24, 25° C.
Procedure: HEW Lysozyme activity was tested with Micrococcus lysodeikticus cells in 50 mM Potassium Phosphate Buffer, pH 6.24 at 25° C. Absorbance at 450 nm is monitored for the turbidimetric rate determination on an Ultrospec 2000 spectrophotometer (ref).

Molecule	Activity against Staphylococcus cell wall (Staphylococcus cell wall)	Activity with Micrococcus lysodeikticus cells (FIG. 6) [1]
HEW Lysozyme: HEW Lysozyme used as a control	no activity	reduces the absorbance in a non-linear way
PEGylated HEW Lysozyme: HEW Lysozyme PEGylated with MPSS as a control experiment, with or without inhibitors	–	lost its entire activity
B1	excellent activity	–
